# Data published in publication PMC7066191, “Exploiting loss of heterozygosity for allele-selective colorectal cancer chemotherapy” (Nature Communications, 2020).
# pKd: −log10 of the molar value.
# Columns and labels:
# [1] = biological target: T1, Aurora kinase A (Homo sapiens, UniProt O14965); experiment: KdELECT competition binding (DiscoverX), 11-point; nanoDSF thermal shift
# T1 construct: gene AURKA
# [2] = biological target: T2, N-acetyltransferase 2 (Homo sapiens, UniProt P11245); experiment: recombinant human NAT2 acetylation kinetics, LC-MS/MS of NAPA; format: biochemical
# T2 construct: gene NAT2
# [3] = biological target: AAK1 (Homo sapiens, UniProt Q2M2I8); experiment: biochemical; set-up: scanMAX competition binding; kinase recovered on immobilized ligand quantified by qPCR, per cent of control; conditions: read-out: APA (POC)
# Method: (§1) The binding affinities of APA and NAPA were evaluated in the scanMAX^sm Kinase Assay Panel (DiscoverX) at a final concentration of 10 µM. The compounds were tested for steric or allosteric binding to kinases in solution. The kinase was captured from the solution through an immobilized kinase-specific ligand and the kinase recovery was quantified. The amount of recovered kinase in the presence or absence of APA or NAPA was measured by quantitative PCR compared with the kinase capture in absence of the compound. Any compound reducing the binding affinity of a kinase to the respective immobilized ligand was scored as a potential hit, and the binding affinity of the compound toward a kinase is interpreted as the difference between the kinase recovery in the absence and presence of the compound. The inhibitory binding constants (Kd) of APA and NAPA to AURKA were evaluated in a KdELECT Kinase Assay (DiscoverX). […] Data acquisition followed the same methodology as for the scanMAX^sm Kinase Assay Panel. 6 Supplementary Figure 4. Kinome inhibition profiles of APA and its NAT2 metabolite NAPA identifies preferential APA kinase targets and differential binding to AURKA a The human kinome was assessed for binding affinity to APA and NAPA at 10 µM concentration (468 kinases in the scanMAX Kinase Assay Panel, DiscoverX). The family stratification of kinases is shown as a cladogram. Circles visualize the binding affinity of NAPA and APA towards each kinase with a higher intensity of blue corresponding to a higher binding affinity. […] One single data point from one experiment at a concentration 18.5 µM of APA was excluded as an outlier. c Thermal shift assay for human recombinant AURKA in the presence of APA and the selective inhibitor S1451. Melting temperatures were obtained by calculating the first derivative of the tryptophan fluorescence ratio at 350 nm and 330 nm and are shown for AURKA in the presence of S1451 (blue) and APA (yellow). Structural similarities between APA and kinase inhibitors[27] prompted investigation of protein kinases as mediators of APA toxicity. […] To enrich for kinase interactions that could explain the preferential killing of slow NAT2 cells, we compared the binding affinity of each kinase with APA and NAPA, selected 44 targets with preferential binding to APA and excluded kinases non-essential for cell survival and those not expressed in CRC cells (Supplementary Fig. 4A, Supplementary Table 4). […] The growth inhibition of RKO and DLD-1 following siRNA-mediated AURKA knockdown (Figs. 3c, d) reflected the relative efficiency of protein downregulation (Supplementary Fig. 5C, D). […] (Supplementary Fig. 4C). AURKA regulates cell cycle progression through association with other centrosome and spindle-associated proteins. Its activation requires auto-phosphorylation at Thr288 and ensures spindle pole integrity, centrosome duplication as well as adequate chromosomal alignment and segregation, while its inhibition leads to multipolar spindles with acentrosomal poles[28],[31]. […] S1451 reduced the fraction of pAURKA levels by >90% regardless of NAT2 expression (Fig. 3f and Su
# [4] = biological target: AURKA (Homo sapiens, UniProt O14965); experiment: biochemical; set-up: scanMAX competition binding; kinase recovered on immobilized ligand quantified by qPCR, per cent of control; conditions: read-out: APA (POC)
# Method: as §1
# [5] = biological target: CSNK2A2 (Homo sapiens, UniProt P19784); experiment: biochemical; set-up: scanMAX competition binding; kinase recovered on immobilized ligand quantified by qPCR, per cent of control; conditions: read-out: APA (POC)
# Method: as §1
# [6] = biological target: DYRK2 (Homo sapiens, UniProt Q92630); experiment: biochemical; set-up: scanMAX competition binding; kinase recovered on immobilized ligand quantified by qPCR, per cent of control; conditions: read-out: APA (POC)
# Method: as §1
# [7] = biological target: T3, GSG2 (Homo sapiens, UniProt Q8TF76); experiment: biochemical; set-up: scanMAX competition binding; kinase recovered on immobilized ligand quantified by qPCR, per cent of control; conditions: read-out: APA (POC)
# T3 construct: gene HASPIN
# Method: as §1
# [8] = biological target: HIPK2 (Homo sapiens, UniProt Q9H2X6); experiment: biochemical; set-up: scanMAX competition binding; kinase recovered on immobilized ligand quantified by qPCR, per cent of control; conditions: read-out: APA (POC)
# Method: as §1
# [9] = biological target: IRAK3 (Homo sapiens, UniProt Q9Y616); experiment: biochemical; set-up: scanMAX competition binding; kinase recovered on immobilized ligand quantified by qPCR, per cent of control; conditions: read-out: APA (POC)
# Method: as §1
# [10] = biological target: KDR (Homo sapiens, UniProt P35968); experiment: biochemical; set-up: scanMAX competition binding; kinase recovered on immobilized ligand quantified by qPCR, per cent of control; conditions: read-out: APA (POC)
# Method: as §1
# [11] = biological target: PDGFRA (Homo sapiens, UniProt P16234); experiment: biochemical; set-up: scanMAX competition binding; kinase recovered on immobilized ligand quantified by qPCR, per cent of control; conditions: read-out: APA (POC)
# Method: as §1
# [12] = biological target: PIP4K2B (Homo sapiens, UniProt P78356); experiment: biochemical; set-up: scanMAX competition binding; kinase recovered on immobilized ligand quantified by qPCR, per cent of control; conditions: read-out: APA (POC)
# Method: as §1
# [13] = biological target: T4, RPS6KA1_Dom1 (Homo sapiens, UniProt Q15418); experiment: biochemical; set-up: scanMAX competition binding; kinase recovered on immobilized ligand quantified by qPCR, per cent of control; conditions: read-out: APA (POC)
# T4 construct: gene RPS6KA1; Kin.Dom.1 N-terminal
# Method: as §1
# [14] = biological target: T5, RPS6KA3_Dom1 (Homo sapiens, UniProt P51812); experiment: biochemical; set-up: scanMAX competition binding; kinase recovered on immobilized ligand quantified by qPCR, per cent of control; conditions: read-out: APA (POC)
# T5 construct: gene RPS6KA3; Kin.Dom.1 N-terminal
# Method: as §1
# [15] = biological target: T6, RPS6KA6_Dom1 (Homo sapiens, UniProt Q9UK32); experiment: biochemical; set-up: scanMAX competition binding; kinase recovered on immobilized ligand quantified by qPCR, per cent of control; conditions: read-out: APA (POC)
# T6 construct: gene RPS6KA6; Kin.Dom.1 N-terminal
# Method: as §1
# T6 sequence (Q9UK32 whole entry): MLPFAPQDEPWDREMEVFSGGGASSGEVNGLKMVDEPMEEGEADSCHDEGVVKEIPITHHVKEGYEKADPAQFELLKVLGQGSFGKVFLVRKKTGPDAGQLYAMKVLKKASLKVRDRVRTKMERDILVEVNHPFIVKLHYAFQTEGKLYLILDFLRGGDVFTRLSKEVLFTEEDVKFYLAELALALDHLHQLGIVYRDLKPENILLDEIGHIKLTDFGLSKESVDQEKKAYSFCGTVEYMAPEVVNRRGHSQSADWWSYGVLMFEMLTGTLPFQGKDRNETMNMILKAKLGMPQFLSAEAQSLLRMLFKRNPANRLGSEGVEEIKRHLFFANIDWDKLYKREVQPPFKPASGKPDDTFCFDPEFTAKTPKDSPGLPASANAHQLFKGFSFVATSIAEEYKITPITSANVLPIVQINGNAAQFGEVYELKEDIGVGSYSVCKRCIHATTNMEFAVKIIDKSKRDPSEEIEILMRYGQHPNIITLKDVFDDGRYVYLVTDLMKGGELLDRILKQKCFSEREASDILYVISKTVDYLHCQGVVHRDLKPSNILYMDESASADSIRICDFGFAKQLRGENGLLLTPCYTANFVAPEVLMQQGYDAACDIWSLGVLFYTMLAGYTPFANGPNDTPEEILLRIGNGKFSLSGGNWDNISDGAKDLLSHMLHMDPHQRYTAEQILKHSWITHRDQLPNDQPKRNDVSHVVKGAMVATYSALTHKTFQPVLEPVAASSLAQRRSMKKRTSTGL
# Chain of AAK1 (Q2M2I8 whole entry): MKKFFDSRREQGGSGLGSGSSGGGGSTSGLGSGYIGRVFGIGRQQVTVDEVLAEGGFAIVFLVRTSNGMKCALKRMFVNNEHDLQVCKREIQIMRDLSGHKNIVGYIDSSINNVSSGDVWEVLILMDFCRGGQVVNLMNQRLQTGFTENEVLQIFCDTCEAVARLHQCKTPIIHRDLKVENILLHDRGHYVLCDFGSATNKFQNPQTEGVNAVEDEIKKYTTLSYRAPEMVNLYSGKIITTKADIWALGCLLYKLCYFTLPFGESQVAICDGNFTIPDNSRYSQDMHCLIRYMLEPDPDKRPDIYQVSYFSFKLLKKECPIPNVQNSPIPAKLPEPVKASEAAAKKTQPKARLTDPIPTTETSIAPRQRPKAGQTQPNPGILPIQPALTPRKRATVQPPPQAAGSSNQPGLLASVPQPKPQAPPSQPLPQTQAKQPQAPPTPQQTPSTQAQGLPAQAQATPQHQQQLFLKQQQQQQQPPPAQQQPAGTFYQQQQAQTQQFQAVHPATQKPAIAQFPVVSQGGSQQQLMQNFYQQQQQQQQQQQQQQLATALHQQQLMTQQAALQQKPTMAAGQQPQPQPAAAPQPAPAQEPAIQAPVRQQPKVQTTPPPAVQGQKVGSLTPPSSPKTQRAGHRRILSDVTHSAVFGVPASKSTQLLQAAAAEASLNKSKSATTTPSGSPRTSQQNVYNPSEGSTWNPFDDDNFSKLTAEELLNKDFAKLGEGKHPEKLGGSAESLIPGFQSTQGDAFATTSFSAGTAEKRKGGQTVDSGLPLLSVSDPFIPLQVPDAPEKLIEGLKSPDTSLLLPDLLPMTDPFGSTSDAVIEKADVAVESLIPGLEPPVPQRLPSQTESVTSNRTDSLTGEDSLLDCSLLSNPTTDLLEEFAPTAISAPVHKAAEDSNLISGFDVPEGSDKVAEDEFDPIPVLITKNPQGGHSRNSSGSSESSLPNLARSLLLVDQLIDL
# T4 sequence (Q15418 whole entry): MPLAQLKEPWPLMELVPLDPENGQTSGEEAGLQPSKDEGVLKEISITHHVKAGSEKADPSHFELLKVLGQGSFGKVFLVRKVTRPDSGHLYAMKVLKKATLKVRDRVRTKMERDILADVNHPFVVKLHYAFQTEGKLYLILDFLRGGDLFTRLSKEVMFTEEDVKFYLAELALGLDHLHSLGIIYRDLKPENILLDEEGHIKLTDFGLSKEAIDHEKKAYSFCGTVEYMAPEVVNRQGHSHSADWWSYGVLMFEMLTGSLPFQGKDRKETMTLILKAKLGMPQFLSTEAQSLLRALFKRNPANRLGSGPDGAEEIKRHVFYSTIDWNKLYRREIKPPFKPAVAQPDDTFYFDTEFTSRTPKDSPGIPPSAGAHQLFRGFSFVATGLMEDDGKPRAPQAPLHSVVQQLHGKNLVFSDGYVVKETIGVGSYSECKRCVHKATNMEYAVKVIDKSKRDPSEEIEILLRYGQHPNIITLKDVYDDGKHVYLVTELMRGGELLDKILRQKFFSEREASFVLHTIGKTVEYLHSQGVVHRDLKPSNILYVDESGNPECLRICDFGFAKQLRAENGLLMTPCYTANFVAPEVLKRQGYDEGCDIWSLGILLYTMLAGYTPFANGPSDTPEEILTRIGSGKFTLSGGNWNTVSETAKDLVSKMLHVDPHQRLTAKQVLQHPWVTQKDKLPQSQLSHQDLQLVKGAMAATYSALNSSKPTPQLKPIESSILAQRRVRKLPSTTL
# Chain of PIP4K2B (P78356 whole entry): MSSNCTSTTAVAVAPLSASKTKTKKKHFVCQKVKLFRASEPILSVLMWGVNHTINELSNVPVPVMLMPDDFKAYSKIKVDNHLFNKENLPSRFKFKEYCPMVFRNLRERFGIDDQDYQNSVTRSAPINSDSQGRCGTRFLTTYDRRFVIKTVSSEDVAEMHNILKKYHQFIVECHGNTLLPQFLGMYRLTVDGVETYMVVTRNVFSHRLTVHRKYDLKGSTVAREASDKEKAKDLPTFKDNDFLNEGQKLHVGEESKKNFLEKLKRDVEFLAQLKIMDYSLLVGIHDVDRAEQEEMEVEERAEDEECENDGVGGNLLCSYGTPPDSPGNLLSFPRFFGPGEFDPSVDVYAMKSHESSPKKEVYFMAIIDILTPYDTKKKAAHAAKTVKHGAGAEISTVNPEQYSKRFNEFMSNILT
# T5 sequence (P51812 whole entry): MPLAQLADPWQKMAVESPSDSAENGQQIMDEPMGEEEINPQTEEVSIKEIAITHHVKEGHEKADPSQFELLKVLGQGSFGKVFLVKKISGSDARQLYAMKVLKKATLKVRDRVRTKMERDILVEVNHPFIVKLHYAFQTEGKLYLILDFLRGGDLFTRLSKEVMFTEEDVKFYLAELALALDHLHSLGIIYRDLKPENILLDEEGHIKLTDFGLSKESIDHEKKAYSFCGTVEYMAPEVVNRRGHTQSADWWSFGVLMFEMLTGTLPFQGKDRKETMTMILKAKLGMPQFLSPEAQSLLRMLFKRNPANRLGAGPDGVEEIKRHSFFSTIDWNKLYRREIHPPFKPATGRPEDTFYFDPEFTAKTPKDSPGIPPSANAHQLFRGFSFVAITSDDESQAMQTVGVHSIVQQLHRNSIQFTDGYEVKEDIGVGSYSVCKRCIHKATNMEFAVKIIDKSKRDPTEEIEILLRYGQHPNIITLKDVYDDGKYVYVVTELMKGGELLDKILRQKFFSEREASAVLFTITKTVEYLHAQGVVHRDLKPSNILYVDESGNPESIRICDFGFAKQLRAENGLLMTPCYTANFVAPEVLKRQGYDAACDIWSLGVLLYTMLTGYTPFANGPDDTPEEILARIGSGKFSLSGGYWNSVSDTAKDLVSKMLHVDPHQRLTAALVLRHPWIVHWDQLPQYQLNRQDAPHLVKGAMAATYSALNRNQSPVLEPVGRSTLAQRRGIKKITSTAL
# T2 sequence (P11245 whole entry): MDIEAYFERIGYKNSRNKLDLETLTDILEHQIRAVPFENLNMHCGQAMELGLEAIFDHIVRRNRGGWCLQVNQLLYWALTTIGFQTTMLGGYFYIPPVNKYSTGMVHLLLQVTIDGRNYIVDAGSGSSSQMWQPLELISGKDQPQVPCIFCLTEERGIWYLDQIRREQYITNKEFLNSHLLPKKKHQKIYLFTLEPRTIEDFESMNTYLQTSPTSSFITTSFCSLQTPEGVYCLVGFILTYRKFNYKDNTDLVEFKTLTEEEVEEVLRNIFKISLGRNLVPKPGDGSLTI
# Chain of CSNK2A2 (P19784 whole entry): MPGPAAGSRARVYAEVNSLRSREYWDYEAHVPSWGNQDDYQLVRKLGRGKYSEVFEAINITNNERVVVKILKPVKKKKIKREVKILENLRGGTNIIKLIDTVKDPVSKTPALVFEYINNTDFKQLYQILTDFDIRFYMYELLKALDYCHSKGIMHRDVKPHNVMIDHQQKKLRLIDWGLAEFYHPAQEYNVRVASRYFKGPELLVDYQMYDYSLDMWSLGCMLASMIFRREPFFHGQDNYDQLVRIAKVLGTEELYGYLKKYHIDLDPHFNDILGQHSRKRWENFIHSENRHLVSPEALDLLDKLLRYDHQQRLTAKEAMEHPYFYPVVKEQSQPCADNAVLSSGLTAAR
# Chain of DYRK2 (Q92630 whole entry): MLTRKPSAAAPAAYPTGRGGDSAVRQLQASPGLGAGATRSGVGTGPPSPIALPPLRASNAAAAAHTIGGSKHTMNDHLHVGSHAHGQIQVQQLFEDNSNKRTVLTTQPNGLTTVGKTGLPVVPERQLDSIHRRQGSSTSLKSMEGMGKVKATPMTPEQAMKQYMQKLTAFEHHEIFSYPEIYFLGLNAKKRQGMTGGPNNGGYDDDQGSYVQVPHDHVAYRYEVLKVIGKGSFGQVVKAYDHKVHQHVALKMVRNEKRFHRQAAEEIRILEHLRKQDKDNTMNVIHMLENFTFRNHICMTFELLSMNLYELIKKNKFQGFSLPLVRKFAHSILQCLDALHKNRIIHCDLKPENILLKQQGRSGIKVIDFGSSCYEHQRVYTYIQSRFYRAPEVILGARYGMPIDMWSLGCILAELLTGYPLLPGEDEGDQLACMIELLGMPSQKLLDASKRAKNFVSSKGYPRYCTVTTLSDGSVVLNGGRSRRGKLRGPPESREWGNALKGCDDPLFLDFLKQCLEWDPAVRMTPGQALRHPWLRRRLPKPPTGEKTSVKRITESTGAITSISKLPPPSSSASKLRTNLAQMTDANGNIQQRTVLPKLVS
smiles,measurement,setting,value
"COc1cc(Nc2cncc(-c3ccc(N)cc3)n2)cc(OC)c1OC [APA, 6-(4-aminophenyl)-N-(3,4,5-trimethoxyphenyl)pyrazin-2-amine]",pKd,[1],4.87
same,"recombinant human NAT2 acetylation kinetics, LC-MS/MS of NAPA",[2],Recombinant assays with human NAT1 and NAT2 further proved APA acetylation to be specifically mediated by NAT2
same,remaining binding at 10 µM,[3],45%
same,remaining binding at 10 µM,[4],53%
same,remaining binding at 10 µM,[5],29%
same,remaining binding at 10 µM,[6],63%
same,remaining binding at 10 µM,[7],6.9%
same,remaining binding at 10 µM,[8],22%
same,remaining binding at 10 µM,[9],46%
same,remaining binding at 10 µM,[10],7.1%
same,remaining binding at 10 µM,[11],3.4%
same,remaining binding at 10 µM,[12],20%
same,remaining binding at 10 µM,[13],56%
same,remaining binding at 10 µM,[14],39%
same,remaining binding at 10 µM,[15],58%
